Results as given in PubChem BioAssay AID256 (DTP/NCI, 2004).
Where “and” joins values, the source holds several entries; their conditions need not be identical. Equal entries are not always repeated. Inconclusive results and toxic doses are left out.

Test system: CD2F1 mice, L1210 leukemia ip, survival T/C
Assay: NCI In Vivo Anticancer Drug Screen. Data for tumor model L1210 Leukemia (intraperitoneal) in CD2F1 (CDF1) mice
Details: endpoint: mean survival time, higher = longer survival
In short: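 Ratio T/C, where T is the treated-group value and C the vehicle-dosed control value, from mice implanted with a transplantable tumor.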

C[N+]12CCC34c5ccccc5NC3C3C(CC(=O)[O-])OCC=C(C1)C3CC42 (stereo unspecified)
T/C (dose: 75.0 mg/kg/injection, schedule: Q01DX001 (ip), vehicle: other): 96 % of control
T/C (dose: 150.0 mg/kg/injection, schedule: Q01DX001 (ip), vehicle: other): 98 % of control

COC1CC2c3ccccc3C1C(C)=[N+]2C (stereo unspecified)
T/C (dose: 100.0 mg/kg/injection, schedule: Q04DX003 (ip), vehicle: saline): 101 % of control
T/C (dose: 200.0 mg/kg/injection, schedule: Q04DX003 (ip), vehicle: saline): 95 % of control
T/C (dose: 400.0 mg/kg/injection, schedule: Q04DX003 (ip), vehicle: saline): 94 % of control

N=[N+]=CC(=O)CCC(NC(=O)C(CCC(=O)C=[N+]=N)NC(=O)CCC(N)C(=O)O)C(=O)O (stereo unspecified)
T/C (dose: 0.01 mg/kg/injection, schedule: Q01DX009 (ip), vehicle: water): 95 % of control
T/C (dose: 0.03 mg/kg/injection, schedule: Q01DX009 (ip), vehicle: water): 96 % of control
T/C (dose: 0.05 mg/kg/injection, schedule: Q01DX009 (ip), vehicle: other): 115 % of control and 112 % of control
T/C (dose: 0.05 mg/kg/injection, schedule: Q01DX009 (ip), vehicle: water): 115 % of control
T/C (dose: 0.05 mg/kg/injection, schedule: Q01DX009 (oral), vehicle: water): 103 % of control
T/C (dose: 0.05 mg/kg/injection, schedule: Q01DX009 (sc), vehicle: water): 116 % of control
T/C (dose: 0.1 mg/kg/injection, schedule: Q01DX009 (ip), vehicle: other): 152 % of control
T/C (dose: 0.1 mg/kg/injection, schedule: Q01DX009 (oral), vehicle: water): 107 % of control
T/C (dose: 0.18 mg/kg/injection, schedule: Q01DX017 (ip), vehicle: saline): 157 % of control
T/C (dose: 0.2 mg/kg/injection, schedule: Q01DX009 (oral), vehicle: water): 120 % of control
T/C (dose: 0.2 mg/kg/injection, schedule: Q01DX009 (sc), vehicle: water): 101 % of control
T/C (dose: 0.3 mg/kg/injection, schedule: Q01DX017 (ip), vehicle: saline): 111 % of control
T/C (dose: 0.4 mg/kg/injection, schedule: Q01DX009 (oral), vehicle: water): 90 % of control
T/C (dose: 0.4 mg/kg/injection, schedule: Q01DX009 (sc), vehicle: water): 98 % of control
T/C (dose: 0.5 mg/kg/injection, schedule: Q01DX009 (ip), vehicle: other): 116 % of control and 96 % of control and 97 % of control
T/C (dose: 0.5 mg/kg/injection, schedule: Q01DX017 (ip), vehicle: saline): 112 % of control
T/C (dose: 1.0 mg/kg/injection, schedule: Q01DX009 (ip), vehicle: other): 87 % of control
T/C (dose: 1.6 mg/kg/injection, schedule: Q03HX024 (ip), vehicle: water): 100 % of control
T/C (dose: 3.1 mg/kg/injection, schedule: Q03HX008 (ip), vehicle: water): 110 % of control
T/C (dose: 3.1 mg/kg/injection, schedule: Q03HX024 (ip), vehicle: water): 87 % of control
T/C (dose: 6.25 mg/kg/injection, schedule: Q04DX003 (ip), vehicle: water): 155 % of control
T/C (dose: 7.5 mg/kg/injection, schedule: Q04DX003 (ip), vehicle: other): 162 % of control and 165 % of control and 168 % of control
T/C (dose: 12.5 mg/kg/injection, schedule: Q04DX003 (ip), vehicle: water): 160 % of control
T/C (dose: 15.0 mg/kg/injection, schedule: Q04DX003 (ip), vehicle: other): 168 % of control and 177 % of control and 191 % of control
T/C (dose: 25.0 mg/kg/injection, schedule: Q04DX003 (ip), vehicle: water): 178 % of control
T/C (dose: 25.0 mg/kg/injection, schedule: Q08DX002 (ip), vehicle: water): 169 % of control
T/C (dose: 30.0 mg/kg/injection, schedule: Q04DX003 (ip), vehicle: other): 178 % of control and 190 % of control and 191 % of control
T/C (dose: 50.0 mg/kg/injection, schedule: Q08DX002 (ip), vehicle: water): 165 % of control
T/C (dose: 60.0 mg/kg/injection, schedule: Q04DX003 (ip), vehicle: other): 155 % of control and 196 % of control and 203 % of control
T/C (dose: 100.0 mg/kg/injection, schedule: Q01DX001 (oral), vehicle: water): 124 % of control
T/C (dose: 100.0 mg/kg/injection, schedule: Q01DX001 (sc), vehicle: water): 96 % of control
T/C (dose: 100.0 mg/kg/injection, schedule: Q04DX003 (ip), vehicle: water): 109 % of control
T/C (dose: 100.0 mg/kg/injection, schedule: Q08DX002 (ip), vehicle: water): 158 % of control
T/C (dose: 200.0 mg/kg/injection, schedule: Q01DX001 (ip), vehicle: water): 118 % of control
T/C (dose: 200.0 mg/kg/injection, schedule: Q01DX001 (oral), vehicle: water): 121 % of control
T/C (dose: 400.0 mg/kg/injection, schedule: Q01DX001 (ip), vehicle: water): 92 % of control
